Source: patent US9315491B2 (DEVELOPMENT CENTER FOR BIOTECHNOLOGY, priority 2009, dated 2016)

Molecular target: recombinant mTOR (Homo sapiens (Human), UniProt P42345)
Experiment: mTOR kinase assay (33P incorporation into 4EBP1)
Type: biochemical
Conditions: compound at 10 μM, 10 μM ATP
Description: The activity of the compound against mTOR was examined by measuring the incorporation of ^33P from [γ-^33P]-ATP into 4EBP1. His-tagged, recombinant human 4EBP1 was expressed in E. coli, purified by nickel-nitrilotriacetic acid (Ni-NTA) resins, and stored at −80° C. Phosphorylation of 4EBP1 by mTOR was assayed in the presence or absence of the compound and performed in a final volume of 25 μl reaction buffer containing 300 ng 4EBP1, 50 ng recombinant mTOR (Invitrogen), 50 mM HEPES (pH 7.5), 1 mM EGTA, 0.01% Polysorbate 20, 10 mM MnCl2, 2.5 mM DTT, 10 μM ATP, and 0.5 μCi [γ-33P]-ATP (PerkinElmir) for 30 min at 30° C. The reactions were terminated by adding 3% phosphoric acid. The ^33P labeled 4EBP1 was transferred onto UniFilter-96 GF/B plate (PerkinElmer) and quantified by Top Count Microplate Scintillation Counter (PerkinElmer). For primary screening of kinase activity inhibition, each test compound was evaluated at […] in duplicate. […] The IC50 values of the compounds were determined after carrying out assays at eight serially diluted concentrations of each compound in duplicate. The results were analyzed using linear regression software (GraphPad Prism 5; GraphPad Software Inc.).
IC50 value is defined as the concentration of the test compound which achieves a half-maximal inhibition of the kinase activity.

Sequence of recombinant mTOR (P42345 1360-2549): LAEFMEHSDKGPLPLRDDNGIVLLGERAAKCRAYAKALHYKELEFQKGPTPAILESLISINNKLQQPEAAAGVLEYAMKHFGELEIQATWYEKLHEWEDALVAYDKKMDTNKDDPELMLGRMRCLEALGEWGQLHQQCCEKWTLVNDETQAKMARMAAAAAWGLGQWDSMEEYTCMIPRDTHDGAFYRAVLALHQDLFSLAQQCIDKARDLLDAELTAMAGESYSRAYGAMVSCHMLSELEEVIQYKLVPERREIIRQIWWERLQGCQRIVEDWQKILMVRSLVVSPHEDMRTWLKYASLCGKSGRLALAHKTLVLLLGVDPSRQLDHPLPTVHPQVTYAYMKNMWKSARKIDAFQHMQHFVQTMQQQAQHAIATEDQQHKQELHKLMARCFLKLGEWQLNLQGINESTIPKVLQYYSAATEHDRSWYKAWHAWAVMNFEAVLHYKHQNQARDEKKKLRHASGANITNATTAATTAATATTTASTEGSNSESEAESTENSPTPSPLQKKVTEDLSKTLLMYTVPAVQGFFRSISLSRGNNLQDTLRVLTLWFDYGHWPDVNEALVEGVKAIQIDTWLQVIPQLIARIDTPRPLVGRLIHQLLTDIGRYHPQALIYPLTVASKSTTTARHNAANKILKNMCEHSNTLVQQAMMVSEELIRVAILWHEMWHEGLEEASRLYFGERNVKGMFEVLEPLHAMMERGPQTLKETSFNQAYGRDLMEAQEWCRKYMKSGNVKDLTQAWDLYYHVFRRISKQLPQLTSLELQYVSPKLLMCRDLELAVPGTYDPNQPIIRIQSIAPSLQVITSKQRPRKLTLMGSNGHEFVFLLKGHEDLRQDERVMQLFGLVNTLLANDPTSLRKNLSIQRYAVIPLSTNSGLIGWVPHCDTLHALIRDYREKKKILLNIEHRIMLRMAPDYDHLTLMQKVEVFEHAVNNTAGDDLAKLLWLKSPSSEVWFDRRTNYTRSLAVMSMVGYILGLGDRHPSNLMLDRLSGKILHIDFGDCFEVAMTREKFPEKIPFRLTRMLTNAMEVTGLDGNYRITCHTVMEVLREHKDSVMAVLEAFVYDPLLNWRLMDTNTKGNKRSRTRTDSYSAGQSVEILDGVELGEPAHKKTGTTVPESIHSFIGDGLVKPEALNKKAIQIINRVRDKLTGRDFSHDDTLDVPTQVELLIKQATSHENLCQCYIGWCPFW

Row | inhibition at 10 µM [%] | % Inhibition @ 10 μM [%] | SMILES
1 | 89 | – | COc1cnc(-c2ccc(NC(N)=O)cc2)nc1N1CCOCC1 [MTR-0336, [4-(5-Methoxy-4-morpholin-4-yl-pyrimidin-2-yl)-phenyl]-urea]
2 | 94 | – | COc1cnc(-c2ccc(NC(=O)Nc3ccc(N4CCN(C)CC4)nc3)cc2)nc1N1CCOCC1 [MTR-0338, 1-[4-(5-Methoxy-4-morpholin-4-yl-pyrimidin-2-yl)-phenyl]-3-[6-(4-methyl-piperazin-1-yl)-pyridin-3-yl]-urea]
3 | 83 | – | CSc1cnc(-c2ccc(NC(=O)NC(C)C)cc2)nc1N1CCOCC1 [MTR-0341, 1-Isopropyl-3-[4-(5-methylsulfanyl-4-morpholin-4-yl-pyrimidin-2-yl)-phenyl]-urea]
4 | 92 | – | CSc1cnc(-c2ccc(NC(=O)Nc3ccc(OCCN(C)C)cc3)cc2)nc1N1CCOCC1 [MTR-0343, 1-[4-(2-Dimethylamino-ethoxy)-phenyl]-3-[4-(5-methylsulfanyl-4-morpholin-4-yl-pyrimidin-2-yl)-phenyl]-urea]
5 | 92 | – | CCOC(=O)c1nc(-c2ccc(NC(=O)Nc3ccc(C(N)=O)cc3)c(F)c2)nc(N2CCOCC2)c1OCC [MTR-0344, 2-{4-[3-(4-Carbamoyl-phenyl)-ureido]-3-fluoro-phenyl}-5-ethoxy-6-morpholin-4-yl-pyrimidine-4-carboxylic acid ethyl ester]
6 | 95 | – | CCOC(=O)c1nc(-c2ccc(NC(=O)Nc3ccc(C(N)=O)cc3)cc2F)nc(N2CCOCC2)c1OCC [MTR-0345, 2-{4-[3-(4-Carbamoyl-phenyl)-ureido]-2-fluoro-phenyl}-5-ethoxy-6-morpholin-4-yl-pyrimidine-4-carboxylic acid ethyl ester]
7 | 94 | – | COc1cnc(-c2ccc(NC(=O)Nc3ccc(Br)nc3)cc2)nc1N1CCOCC1 [MTR-0352, 1-(6-Bromo-pyridin-3-yl)-3-[4-(5-methoxy-4-morpholin-4-yl-pyrimidin-2-yl)-phenyl]-urea]
8 | 82 | – | CSc1c(Cl)nc(-c2ccc(NC(N)=O)c(F)c2)nc1N1CCOCC1 [MTR-0356, [4-(4-Chloro-5-methylsulfanyl-6-morpholin-4-yl-pyrimidin-2-yl)-2-fluoro-phenyl]-urea]
9 | 95 | – | CSc1c(-c2ccncc2)nc(-c2ccc(N)cc2)nc1N1CCOCC1 [MTR-0360, 4-(5-Methylsulfanyl-4-morpholin-4-yl-6-pyridin-4-yl-pyrimidin-2-yl)-phenylamine]
10 | 95 | – | CCOC(=O)c1nc(-c2ccc(NC(=O)Nc3ccc4c(c3)OCO4)cc2)nc(N2CCOCC2)c1OCC [MTR-0361, 2-[4-(3-Benzo[1,3]dioxol-5-yl-ureido)-phenyl]-5-ethoxy-6-morpholin-4-yl-pyrimidine-4-carboxylic acid ethyl ester]
11 | 84 | – | CCOC(=O)c1ccc(NC(=O)Nc2ccc(-c3nc(C(=O)OCC)c(OCC)c(N4CCOCC4)n3)cc2)cc1 [MTR-0362, 5-Ethoxy-2-{4-[3-(4-ethoxycarbonyl-phenyl)-ureido]-phenyl}-6-morpholin-4-yl-pyrimidine-4-carboxylic acid ethyl ester]
12 | 93 | – | CCOC(=O)c1nc(-c2ccc(NC(=O)Nc3ccc(OCCN(C)C)cc3)cc2)nc(N2CCOCC2)c1OCC [MTR-0363, 2-(4-{3-[4-(2-Dimethylamino-ethoxy)-phenyl]-ureido}-phenyl)-5-ethoxy-6-morpholin-4-yl-pyrimidine-4-carboxylic acid ethyl ester]
13 | 85 | – | CCOC(=O)c1nc(-c2ccc(NC(=O)NC(C)C)cc2)nc(N2CCOCC2)c1OCC [MTR-0366, 5-Ethoxy-2-[4-(3-isopropyl-ureido)-phenyl]-6-morpholin-4-yl-pyrimidine-4-carboxylic acid ethyl ester]
14 | 81 | – | CSc1c(Cl)nc(-c2cnc(N)nc2)nc1N1CCOCC1 [MTR-0373, 6-Chloro-5-methylsulfanyl-4-morpholin-4-yl-[2,5′]bipyrimidinyl-2′-ylamine]
15 | 92 | – | CS(=O)(=O)c1cnc(-c2ccc(NC(=O)Nc3ccc(N4CCOCC4=O)cc3)cc2)nc1N1CCOCC1 [MTR-0381, 1-[4-(5-Methanesulfonyl-4-morpholin-4-yl-pyrimidin-2-yl)-phenyl]-3-[4-(3-oxo-morpholin-4-yl)-phenyl]-urea]
16 | 85 | – | CCOc1cnc(-c2ccc(NC(=O)Nc3ccc(C(N)=O)cc3)cc2)nc1-c1ccncc1 [MTR-0400, 4-{3-[4-(5-Ethoxy-4-pyridin-4-yl-pyrimidin-2-yl)-phenyl]-ureido}-benzamide]

Row | inhibition at 10 µM [%] | % Inhibition @ 10 μM [%] | SMILES
17 | 88 | – | CCOC(=O)c1nc(-c2cnc(NC(=O)Nc3ccc(N4CCOCC4=O)cc3)nc2)nc(N2CCOCC2)c1OCC [MTR-0403, 5-Ethoxy-6-morpholin-4-yl-2′-{3-[4-(3-oxo-morpholin-4-yl)-phenyl]-ureido}-[2,5′]bipyrimidinyl-4-carboxylic acid ethyl ester]
18 | 85 | – | CSc1c(Cl)nc(-c2ccc(NC(=O)Nc3ccc(S(N)(=O)=O)cc3)c(F)c2)nc1N1CCOCC1 [MTR-0410, 4-{3-[4-(4-Chloro-5-methylsulfanyl-6-morpholin-4-yl-pyrimidin-2-yl)-2-fluoro-phenyl]-ureido}-benzenesulfonamide]
19 | 93 | – | CSc1c(Cl)nc(-c2ccc(NC(=O)Nc3ccc(C(N)=O)cc3)cc2F)nc1N1CCOCC1 [MTR-0411, 4-{3-[4-(4-Chloro-5-methylsulfanyl-6-morpholin-4-yl-pyrimidin-2-yl)-3-fluoro-phenyl]-ureido}-benzamide]
20 | 81 | – | CSc1c(Cl)nc(-c2ccc(NC(=O)Nc3ccc(NC(C)=O)nc3)cc2)nc1N1CCOCC1 [MTR-0415, N-(5-{3-[4-(4-Chloro-5-methylsulfanyl-6-morpholin-4-yl-pyrimidin-2-yl)-phenyl]-ureido}-pyridin-2-yl)-acetamide]
21 | 82 | – | CCOC(=O)c1nc(-c2ccc(NC(=O)Nc3ccc(N4CCN(S(C)(=O)=O)CC4)cc3)cc2)nc(N2CCOCC2)c1OCC [MTR-0419, 5-Ethoxy-2-(4-{3-[4-(4-methanesulfonyl-piperazin-1-yl)-phenyl]-ureido}-phenyl)-6-morpholin-4-yl-pyrimidine-4-carboxylic acid ethyl ester]
22 | 95 | – | CCOC(=O)c1nc(-c2ccc(NC(=O)Nc3ccc4[nH]c(=O)oc4c3)cc2)nc(N2CCOCC2)c1OCC [MTR-0423, 5-Ethoxy-6-morpholin-4-yl-2-{4-[3-(2-oxo-2,3-dihydro-benzooxazol-6-yl)-ureido]-phenyl}-pyrimidine-4-carboxylic acid ethyl ester]
23 | 86 | – | CSc1cnc(-c2ccc(NC(=O)Nc3ccc(N4CCN(S(C)(=O)=O)CC4)cc3)cc2)nc1N1CCOCC1 [MTR-0430, 1-[4-(4-Methanesulfonyl-piperazin-1-yl)-phenyl]-3-[4-(5-methylsulfanyl-4-morpholin-4-yl-pyrimidin-2-yl)-phenyl]-urea]
24 | 90 | – | CSc1c(Cl)nc(-c2ccc(NC(=O)Nc3ccc(S(=O)(=O)N4CCOCC4)cc3)cc2)nc1N1CCOCC1 [MTR-0435, 1-[4-(4-Chloro-5-methylsulfanyl-6-morpholin-4-yl-pyrimidin-2-yl)-phenyl]-3-[4-(morpholine-4-sulfonyl)-phenyl]-urea]
25 | 89 | – | CSc1c(-c2cccnc2)nc(-c2ccc(NC(=S)Nc3ccccc3)cc2)nc1N1CCOCC1 [MTR-0440, 1-[4-(5-Methylsulfanyl-4-morpholin-4-yl-6-pyridin-3-yl-pyrimidin-2-yl)-phenyl]-3-phenyl-thiourea]
26 | 88 | – | CSc1cnc(-c2ccc(NC(=O)Nc3ccc4[nH]c(=O)oc4c3)cc2)nc1N1CCOCC1 [MTR-0459, 1-[4-(5-Methylsulfanyl-4-morpholin-4-yl-pyrimidin-2-yl)-phenyl]-3-(2-oxo-2,3-dihydro-benzooxazol-6-yl)-urea]
27 | 97 | – | CSc1c(-c2ccncc2)nc(-c2ccc(NC(=S)Nc3ccccc3)cc2)nc1N1CCOCC1 [MTR-0468, 1-[4-(5-Methylsulfanyl-4-morpholin-4-yl-6-pyridin-4-yl-pyrimidin-2-yl)-phenyl]-3-phenyl-thiourea]
28 | 88 | – | COc1cnc(-c2ccc(NC(=O)Nc3ccc(S(C)(=O)=O)cc3)cc2)nc1N1CCOCC1 [MTR-0470, 1-(4-Methanesulfonyl-phenyl)-3-[4-(5-methoxy-4-morpholin-4-yl-pyrimidin-2-yl)-phenyl]-urea]
29 | 88 | – | COc1cnc(-c2ccc(NC(=O)Nc3ccc(N4CCOCC4=O)cc3)cc2)nc1-c1ccncc1 [MTR-0474, 1-[4-(5-Methoxy-4-pyridin-4-yl-pyrimidin-2-yl)-phenyl]-3-[4-(3-oxo-morpholin-4-yl)-phenyl]-urea]
30 | 95 | – | CSc1c(-c2ccncc2)nc(-c2ccc(NC(=O)NC(C)C)cc2)nc1N1CCOCC1 [MTR-0479, 1-Isopropyl-3-[4-(5-methylsulfanyl-4-morpholin-4-yl-6-pyridin-4-yl-pyrimidin-2-yl)-phenyl]-urea]
31 | 90 | – | COc1cnc(-c2ccc(NC(=O)Nc3ccncc3)cc2)nc1-c1ccncc1 [MTR-0480, 1-[4-(5-Methoxy-4-pyridin-4-yl-pyrimidin-2-yl)-phenyl]-3-pyridin-4-yl-urea]
32 | – | 88 | COc1c(-c2ccc(N)cc2)nc(-c2ccc(N)cc2)nc1N1CCOCC1 [MTR-0483]
